# Data: ChEMBL document CHEMBL4339239, “A Cytotoxic Indole Characterized by Incorporation of a Unique Carbon-Nitrogen Skeleton and Two Pentacyclic Corynanthean Alkaloids Incorporating a Substituted Tetrahydrofuranone Ring from Kopsia arborea” (J Nat Prod, 2019)
# Test system: HT-29
# Assay: Cytotoxicity in human HT-29 cells assessed as inhibition of cell growth incubated for 72 hrs by MTT assay
# Type: functional, cell-based
# Details: HT-29, 72 h
row,Structure (SMILES),IC50 [µM]
1,C=C1c2[nH]c3ccccc3c2C[C@H]2[N@]3CC[C@]12/C(=C\C)C3,6.2
2,C[C@H](O)[C@@]12CN3CCc4c([nH]c5ccccc45)[C@@H]3C[C@@H]1C(=O)CO2,> 30
